Holding throughout (type): in vivo
Test [1] has as its system Digitaria sanguinalis (DIGSA). Put plainly: Pre-emergence herbicidal activity, glasshouse pot test. The following applies: 480 h, rate 250 g/ha, evaluated 20 days later, 100=total damage to plant, 0=no damage to plant. On the procedure:
(§1) Monocotyledonous and dicotyledonous test plants were sown in standard soil in pots. After cultivation for one day (pre-emergence) or after 10 days cultivation (post-emergence) under controlled conditions in a glasshouse, the plants were sprayed with an aqueous spray solution derived from the formulation of the technical active ingredient in 0.6 ml acetone and 45 ml formulation solution containing 10.6% Emulsogen EL (Registry number 61791-12-6), 42.2% N-methylpyrrolidone, 42.2% dipropylene glycol monomethyl ether (Registry number 34590-94-8) and 0.2% X-77 (Registry number 11097-66-8). The test plants were then grown in a greenhouse under optimum conditions until, 15 days later for post-emergence and 20 days for pre-emergence, the test was evaluated (100=total damage to plant; 0=no damage to plant). Test Plants: Alopecurus myosuroides (ALOMY), Avena fatua (AVEFA), Lolium perenne (LOLPE), Setaria faberi (SETFA), Digitaria sanguinalis (DIGSA), Echinochloa crus-galli (ECHCG)

Test [2] has as its system Setaria faberi (SETFA). The test is described as above. The following applies: 480 h, rate 250 g/ha, evaluated 20 days later, 100=total damage to plant, 0=no damage to plant. On the procedure:
as §1

Test [3] has as its system Echinochloa crus-galli (ECHCG). The description is as above. As to conditions: 480 h, rate 250 g/ha, evaluated 20 days later, 100=total damage to plant, 0=no damage to plant. The procedure:
as §1

In test [4] the test system is Avena fatua (AVEFA). Described as above. The following applies: 480 h, rate 250 g/ha, evaluated 20 days later, 100=total damage to plant, 0=no damage to plant. On the procedure:
as §1

Test [5] relates to Alopecurus myosuroides (ALOMY). Described as above. As to conditions: 480 h, rate 250 g/ha, evaluated 20 days later, 100=total damage to plant, 0=no damage to plant. On the procedure:
as §1

Test [6] relates to Lolium perenne (LOLPE). The description is as above. The following applies: 480 h, rate 250 g/ha, evaluated 20 days later, 100=total damage to plant, 0=no damage to plant. On the procedure: as §1
Test [7] deals with Digitaria sanguinalis (DIGSA). Put plainly: Post-emergence herbicidal activity, glasshouse pot test. As to conditions: 360 h, rate 125 g/ha, evaluated 15 days later, 100=total damage to plant, 0=no damage to plant. On the procedure: as §1
Test [8] deals with Setaria faberi (SETFA). Described as above. The following applies: 360 h, rate 125 g/ha, evaluated 15 days later, 100=total damage to plant, 0=no damage to plant. On the procedure: as §1
Test [9] concerns Echinochloa crus-galli (ECHCG). The description is as above. As to conditions: 360 h, rate 125 g/ha, evaluated 15 days later, 100=total damage to plant, 0=no damage to plant. On the procedure: as §1
The test system of test [10] is Avena fatua (AVEFA). The description is as above. The following applies: 360 h, rate 125 g/ha, evaluated 15 days later, 100=total damage to plant, 0=no damage to plant. On the procedure:
as §1

The test system of test [11] is Alopecurus myosuroides (ALOMY). The description is as above. The following applies: 360 h, rate 125 g/ha, evaluated 15 days later, 100=total damage to plant, 0=no damage to plant. The procedure: as §1
Test [12] concerns Lolium perenne (LOLPE). The test is described as above. As to conditions: 360 h, rate 125 g/ha, evaluated 15 days later, 100=total damage to plant, 0=no damage to plant. The procedure:
as §1

With `CCc1ccc(-c2ccc(Cl)cc2F)cc1C1=C(O)[C@H]2[C@@H](C1=O)[C@]1(C)CC[C@@]2(C)O1` (racemic) [Compound T23, (1RS,2SR,6RS,7SR)-4-(4′-chloro-4-ethyl-2′-fluorobiphen-3-yl)-1,7-dimethyl-10-oxatricyclo[5.2.1.0^2,6]decane-3,5-dione], the pest or weed control at 250 g/ha was 100% in test [1]; 100% in the test with Setaria faberi (SETFA) [2]; 100% in test [3]; 60% in the test on Avena fatua (AVEFA) [4]; 40% in [5]; 70% in the test with Lolium perenne (LOLPE) [6]. Also, the pest or weed control at 125 g/ha stood at 90% in test [7]; 90% in the test with Setaria faberi (SETFA) [8]; 100% in test [9]; 100% with Avena fatua (AVEFA) [10]; 100% in test [11]; 70% in the test on Lolium perenne (LOLPE) [12].

As to `Cc1cc(-c2ccccc2)cc(C)c1C1=C(OC(=O)C(C)C)[C@H]2[C@@H](C1=O)[C@@H]1CC[C@H]2O1` [Compound P2], the pest or weed control at 250 g/ha in test [1] was determined as 100%; with Setaria faberi (SETFA) [2], 100%; in [3] it was 80%; in the test on Avena fatua (AVEFA) [4] it was 70%; in [5], 100%; in the test on Lolium perenne (LOLPE) [6], 90%. The pest or weed control at 125 g/ha in test [7] was found to be 90%; in the test with Setaria faberi (SETFA) [8] it was 100%; in [9] it was 100%; with Avena fatua (AVEFA) [10], 80%; in test [11], 100%; with Lolium perenne (LOLPE) [12], 90%.

As to `CC(=O)OC1=C(c2c(C)cc(-c3ccccc3)cc2C)C(=O)[C@@H]2[C@H]1[C@H]1CC[C@@H]2O1` [Compound P3], the pest or weed control at 250 g/ha in test [1] worked out at 100%; with Setaria faberi (SETFA) [2], 100%; in [3], 80%; in the test on Avena fatua (AVEFA) [4] it was 60%; in test [5], 100%; with Lolium perenne (LOLPE) [6], 100%. The pest or weed control at 125 g/ha came out at 80% in test [7]; 90% in the test on Setaria faberi (SETFA) [8]; 100% in test [9]; 80% in the test with Avena fatua (AVEFA) [10]; 100% in [11]; 100% in the test on Lolium perenne (LOLPE) [12].

For `Cc1cc(-c2ccccc2)cc(C)c1C1=C(OC(=O)c2c(C)noc2C)[C@H]2[C@@H](C1=O)[C@@H]1CC[C@H]2O1` [Compound P4], the pest or weed control at 250 g/ha worked out at 100% in test [1]; 100% with Setaria faberi (SETFA) [2]; 100% in test [3]; 50% in the test with Avena fatua (AVEFA) [4]; 100% in test [5]; 90% in the test with Lolium perenne (LOLPE) [6]. For the same compound, the pest or weed control at 125 g/ha came to 80% in [7]; 80% with Setaria faberi (SETFA) [8]; 100% in test [9]; 90% with Avena fatua (AVEFA) [10]; 100% in test [11]; 90% in the test with Lolium perenne (LOLPE) [12].

For `Cc1cc(-c2ccccc2)cc(C)c1C1=C(OC(=O)C(C)(C)C)[C@H]2[C@@H](C1=O)[C@]1(C)CC[C@@]2(C)O1` [Compound P5], the pest or weed control at 250 g/ha in test [1] was found to be 100%; in the test with Setaria faberi (SETFA) [2], 100%; in [3] it was 70%; with Avena fatua (AVEFA) [4] it was 0%; in test [5] it was 100%; in the test with Lolium perenne (LOLPE) [6], 70%. Besides, the pest or weed control at 125 g/ha in test [7] amounted to 100%; in the test on Setaria faberi (SETFA) [8] it was 90%; in test [9] it was 100%; in the test on Avena fatua (AVEFA) [10], 20%; in test [11], 70%; in the test with Lolium perenne (LOLPE) [12], 40%.

As to `CC(=O)OC1=C(c2c(C)cc(-c3ccccc3)cc2C)C(=O)[C@@H]2[C@H]1[C@@]1(C)CC[C@]2(C)O1` [Compound P6], the pest or weed control at 250 g/ha in test [1] came out at 100%; with Setaria faberi (SETFA) [2], 100%; in [3], 100%; in the test on Avena fatua (AVEFA) [4], 30%; in test [5], 80%; in the test with Lolium perenne (LOLPE) [6], 70%. In addition, the pest or weed control at 125 g/ha in test [7] came to 90%; in the test with Setaria faberi (SETFA) [8] it was 100%; in test [9], 100%; with Avena fatua (AVEFA) [10] it was 50%; in test [11] it was 70%; with Lolium perenne (LOLPE) [12] it was 60%.

Take `Cc1cc(-c2ccccc2)cc(C)c1C1=C(OC(=O)C(C)(C)C)[C@H]2[C@@H](C1=O)[C@]1(C)CC[C@H]2O1` [Compound P7]: the pest or weed control at 250 g/ha in test [1] worked out at 100%; in the test with Setaria faberi (SETFA) [2] it was 100%; in [3], 90%; with Avena fatua (AVEFA) [4], 90%; in [5] it was 100%; in the test with Lolium perenne (LOLPE) [6], 100%. The pest or weed control at 125 g/ha in test [7] is 100%; with Setaria faberi (SETFA) [8], 100%; in test [9], 100%; with Avena fatua (AVEFA) [10] it was 100%; in [11], 100%; in the test on Lolium perenne (LOLPE) [12], 80%.

With `Cc1cc(-c2ccccc2)cc(C)c1C1=C(OC(=O)C(C)(C)C)[C@H]2[C@@H](C1=O)[C@@H]1CC[C@@]2(C)O1` [Compound P8], the pest or weed control at 250 g/ha in test [1] worked out at 100%; in the test with Setaria faberi (SETFA) [2], 100%; in test [3], 90%; with Avena fatua (AVEFA) [4] it was 90%; in test [5], 100%; in the test with Lolium perenne (LOLPE) [6] it was 100%. For the same compound, the pest or weed control at 125 g/ha in test [7] came out at 100%; in the test on Setaria faberi (SETFA) [8], 100%; in test [9], 100%; in the test with Avena fatua (AVEFA) [10] it was 100%; in test [11], 100%; in the test on Lolium perenne (LOLPE) [12], 80%.

For `CCc1cc(-c2ccc(C)cc2)cc(CC)c1C1=C(OC(C)=O)[C@H]2[C@@H](C1=O)[C@@H]1CC[C@H]2O1` [Compound P9], the pest or weed control at 250 g/ha was found to be 40% in [1]; 60% in the test with Setaria faberi (SETFA) [2]; 100% in test [3]; 60% with Avena fatua (AVEFA) [4]; 50% in test [5]; 70% in the test with Lolium perenne (LOLPE) [6]. Further, the pest or weed control at 125 g/ha in test [7] is 100%; in the test with Setaria faberi (SETFA) [8], 90%; in test [9], 100%; in the test on Avena fatua (AVEFA) [10] it was 80%; in [11], 80%; in the test with Lolium perenne (LOLPE) [12] it was 80%.

Regarding `CCc1ccc(-c2ccc(Cl)cc2)cc1C1=C(O)[C@H]2[C@@H](C1=O)[C@@H]1CC[C@H]2O1` [Compound T2], the pest or weed control at 250 g/ha in [1] turned out to be 70%; in the test on Setaria faberi (SETFA) [2], 80%; in [3], 90%; in the test with Avena fatua (AVEFA) [4] it was 40%; in test [5] it was 70%; in the test on Lolium perenne (LOLPE) [6], 50%. Moreover, the pest or weed control at 125 g/ha in [7] was 100%; in the test on Setaria faberi (SETFA) [8] it was 100%; in test [9], 100%; in the test with Avena fatua (AVEFA) [10], 100%; in test [11], 100%; in the test on Lolium perenne (LOLPE) [12], 80%.

Regarding `CCc1ccc(-c2ccc(Cl)cc2)cc1C1=C(O)[C@H]2[C@@H](C1=O)[C@]1(C)CC[C@@]2(C)O1` [Compound T3], the pest or weed control at 250 g/ha in [1] stood at 100%; in the test on Setaria faberi (SETFA) [2], 100%; in test [3], 100%; with Avena fatua (AVEFA) [4], 80%; in test [5], 70%; in the test with Lolium perenne (LOLPE) [6], 80%. The pest or weed control at 125 g/ha turned out to be 90% in [7]; 90% with Setaria faberi (SETFA) [8]; 90% in [9]; 90% in the test with Avena fatua (AVEFA) [10]; 100% in [11]; 80% in the test on Lolium perenne (LOLPE) [12].

(Values after patent US8940913B2, “Herbicides” (Syngenta Crop Protection, LLC, priority 2007, dated 2015).)
